Laboratory results reported in US11340216B2, “Methods and compositions for the positive selection of protein destabilizers” (Dana-Farber Cancer Institute, Inc., priority 2016, dated 2022).

What was measured:
[1] = system: EV-GFP / dCK-Tomato cell mixture; test: Cell mixing (bystander effect) assay, EV-GFP cells with dCK-Tomato cells, flow cytometry; type: cell-based; settings: 100 μM BVdU, 100,000 cells/well, start 8% EV-GFP
Excerpt: The scheme depicted in FIG. 14 generally describes the bystander effect assay in the context of dCK positive selection systems. Cells expressing dCK and tomato fluorescent protein (Td) are mixed with cells having empty vector (EV) and green fluorescent protein (GFP). When cultured with BVdU, cells expressing dCK are expected to convert the nucleotide analog into a product that elicits cytotoxicity, resulting in outgrowth of resistant cells (EV-GFP) as measured by relative GFP/Td fluorescence in the absence of significant bystander killing.
The effects of cell density in cell mixture experiments were examined. EV-GFP cells were mixed together with dCK-Tomato cells in a ratio of 1:9, and the resulting mixture of cells was plated in 6 well plates at 500,000 cells/well, 250,000 cells/well, and 100,000 cells/well, with two wells plated per cell density (FIG. 15). For each cell density, one well received 100 μM BVdU, and the other an equivalent amount of DMSO. Cells were split and re-seeded every 72 hours, to preserve cell density, and analyzed by flow cytometry to quantify the fraction of GFP and Tomato-labeled cells.

[2] = system: DCK-IKZF1-IRES-GFP in 293T cells; test: Pilot drug screen, up assay, 384 well, GFP fluorescence converted to Z-statistic; type: cell-based; settings: ~25 μM library drug, BVdU Day 1, read Day 5, FIG. 24
Description: Columns 1, 23, and 24 of the plate shown in FIG. 23 (right) were treated with DMSO, Pomalidomide, and Dipyridamole, respectively, while each well in Columns 2-22 was treated with an individual drug (concentration=˜25 μM) from a library of approximately 550 bioactive chemicals. On Day 1, Column 1 was treated with DMSO, and Columns 2-24 were treated with BVdU. On Day 5, GFP fluorescence in each well was quantified using an Acumen Laser Cytometer.

DCK-IKZF1-IRES-GFP = test: Same-well assay, 1:1 mixture of DCK-IRES-Tomato and DCK-IKZF1-IRES-GFP 293T stables, GFP/Tomato ratio; type: cell-based; settings: BVdU exposure, FIG. 28
Description: However, exposure of the cells to Pomalidomide and subsequent BVdU exposure specifically rescues the DCK-IKZF1-IRES-GFP population and increases the GFP/Tomato ratio.
This assay was deployed in a proof of concept experiment with a small library of ˜88 engineered IMiD derivatives and plated at 10 serial dilutions ranging from 10 μM to 300 pM.

[3] = target: T1, deoxycytidine kinase (dCK) (Homo sapiens, UniProt P27707); test: BVdU sensitivity and pomalidomide rescue, cell count by Vi-Cell, cells expressing unfused dCK; type: cell-based; settings: 2 μM pomalidomide, BVdU dose-response, FIG. 8
T1 construct: V5 (only if expressed from the GFP vector); expressed in transfected cells
Description: (§1) To assess the validity of the proposed positive selection system, a set of experiments was devised according to the technique outlined in FIG. 6. On day −2, 1×10^6 cells were seeded into a 6 cm dish with 4 mL of DMEM culture media. On day −1, 30,000 cells were seeded per well of a 6 well plate in DMEM media, and on day 0, media were replaced with DMEM media supplemented with decreasing concentrations of BVdU, generated by serial dilution. From days 0-4, media were replaced daily, and on day 5, cells were counted by Vi-Cell. For pomalidomide rescue experiments, the cells were seeded as described above, but from day −2 onwards, were maintained in DMEM media supplemented with 2 μM pomalidomide (Selleck Chemicals).

[4] = system: DCK-IKZF1-IRES-GFP in 293T cells; test: Up assay with limited drug library of approximately 700 compounds; type: cell-based; settings: ~700 compound library, BVdU on Day 2, read Day 5, FIG. 25
Description: For the up assay experiment, 293T cells stably infected to produce DCK-IKZF1-IRES-GFP were seeded in three 384 well plates on Day 0. Each well on each plate received a library drug from a ˜700 compound drug library, and BVdU on Day 2.

[5] = system: IKZF3 and IKZF3 fusion proteins; settings: 2 μM or 20 μM Pomalidomide, FIG. 5
Description: HEK-293FT (Invitrogen) cells were maintained in DMEM medium supplemented with 10% FBS, 100 U/mL Penicillin and 100 μg/mL streptomycin. Stable cell lines were established by lentiviral infection followed by growth in media containing 10 μg/mL blasticidin, followed by fluorescence activated cell sorting to collect GFP-expressing cells.
On day 0, 250,000 cells were seeded into each of three wells of a 6-well plate. […] Cells were washed twice with ice-cold PBS and harvested in EBC Lysis Buffer supplemented with 1× protease inhibitor (Roche). Whole cell extracts were resolved by SDS-PAGE, transferred onto a nitrocellulose membrane, and probed with indicated primary antibodies.

dCK-IKZF3 fusion protein [6] = test: BVdU sensitivity and pomalidomide rescue, cell count by Vi-Cell, cells expressing dCK-IKZF3 fusion; type: cell-based; settings: 2 μM pomalidomide, 100 μM BVdU, counted day 5, FIG. 7
Description: as §1

dCK-IKZF3 fusion protein [7] = test: Competition assay, dCK-IKZF3 GFP cells mixed with dCK tdTomato cells, flow cytometry; type: cell-based; settings: 2 μM pomalidomide plus 100 μM BVdU, 14 days, FIG. 22
Excerpt: Next, a competition assay was devised using dCK and CK-IKZF constructs (FIG. 21). In these experiments, cells expressing dCK-IKZF fusion protein and GFP were mixed with cells expressing dCK and tdTomato. In the presence of BVdU, cells expressing either construct would be capable of generating the cytotoxic product. However, upon the addition of an IMiD (pomalidomide), dCK-IKZF fusion protein would be destabilized, allowing outgrowth of GFP+ cells. dCK-IKZF3 cells labeled with GFP were mixed with dCK cells labeled with tdTomato at a ratio of 1:99 and on day −2, were plated into 6 well plates at 100,000 cells/well in triplicate. On Day −1, the “Mock” and “BVdU” wells were treated with DMSO, and the “pomalidomide” well was treated with 2 μM pomalidomide. On day 0, the “Mock” well was treated with DMSO, while the “BVdU” well was treated with 100 μM BVdU, and the “pomalidomide” well received 2 μM pomalidomide and 100 μM BvDU. Cells were split, re-seeded to maintain cell density, treated with the appropriate drugs and analyzed by flow cytometry every 3 days.

[8] = target: T2, IKZF1-Firefly luciferase protein in 293T cells (UniProt P08659+Q13422+Q96SW2); test: Down assay, Firefly/Renilla luciferase ratio; type: cell-based; settings: read Day 5, FIG. 26
T2 construct: expressed in transfected cells; host or cells: 293T, stably infected
Description: A down assay experiment was conducted in parallel with the up assay experiment. For the down assay experiment, 293T cells stably infected to produce the IKZF1-Firefly luciferase protein as well as the Renilla luciferase protein from a single mRNA transcript were treated as described in the “Up” Assay. On Day 5, for each plate, Firefly and Renilla luciferase signals were quantified, and the Firefly/Renilla ratio calculated for each well and converted to a Z-statistic and plotted (FIG. 26). The hits noted in the “Up Assay” have been labeled in FIG. 25 and FIG. 26 to allow for comparison between the two assays.

T1 sequence (P27707 whole entry, species assumed, the tested form may be a part): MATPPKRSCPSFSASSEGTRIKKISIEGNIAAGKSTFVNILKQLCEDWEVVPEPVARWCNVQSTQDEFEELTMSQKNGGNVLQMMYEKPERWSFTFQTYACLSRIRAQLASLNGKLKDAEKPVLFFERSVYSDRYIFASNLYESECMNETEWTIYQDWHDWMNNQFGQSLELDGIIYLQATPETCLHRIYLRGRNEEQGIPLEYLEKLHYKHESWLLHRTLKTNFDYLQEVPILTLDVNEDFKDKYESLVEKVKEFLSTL
T2 sequence (Q13422+P08659 fused): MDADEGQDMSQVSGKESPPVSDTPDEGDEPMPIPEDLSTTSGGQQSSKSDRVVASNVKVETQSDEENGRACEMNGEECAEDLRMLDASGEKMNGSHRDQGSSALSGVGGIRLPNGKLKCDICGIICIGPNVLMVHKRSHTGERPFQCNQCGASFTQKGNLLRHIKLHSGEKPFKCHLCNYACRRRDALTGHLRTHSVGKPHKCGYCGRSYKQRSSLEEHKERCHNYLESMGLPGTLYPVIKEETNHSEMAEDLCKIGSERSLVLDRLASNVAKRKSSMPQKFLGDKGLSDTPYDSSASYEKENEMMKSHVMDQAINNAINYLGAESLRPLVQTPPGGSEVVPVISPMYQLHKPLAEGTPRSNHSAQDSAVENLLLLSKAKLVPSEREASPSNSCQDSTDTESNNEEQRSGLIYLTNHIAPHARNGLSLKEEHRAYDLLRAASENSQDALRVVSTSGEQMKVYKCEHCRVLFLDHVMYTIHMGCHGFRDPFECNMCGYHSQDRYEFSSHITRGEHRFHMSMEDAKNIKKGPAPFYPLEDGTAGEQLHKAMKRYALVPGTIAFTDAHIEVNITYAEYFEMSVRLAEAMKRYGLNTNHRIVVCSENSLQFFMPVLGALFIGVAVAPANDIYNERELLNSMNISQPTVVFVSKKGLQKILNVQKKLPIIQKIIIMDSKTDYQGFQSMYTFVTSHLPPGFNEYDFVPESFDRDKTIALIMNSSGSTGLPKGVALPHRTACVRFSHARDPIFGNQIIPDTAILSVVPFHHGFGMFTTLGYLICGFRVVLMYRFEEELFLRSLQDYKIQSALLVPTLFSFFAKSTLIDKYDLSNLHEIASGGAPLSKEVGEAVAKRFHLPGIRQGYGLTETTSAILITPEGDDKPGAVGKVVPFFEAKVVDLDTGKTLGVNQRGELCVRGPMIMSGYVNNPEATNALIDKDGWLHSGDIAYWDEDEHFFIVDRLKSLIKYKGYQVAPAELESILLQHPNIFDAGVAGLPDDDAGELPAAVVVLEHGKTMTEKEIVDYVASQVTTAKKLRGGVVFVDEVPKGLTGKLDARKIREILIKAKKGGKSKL
T2 sequence (Q96SW2 whole entry): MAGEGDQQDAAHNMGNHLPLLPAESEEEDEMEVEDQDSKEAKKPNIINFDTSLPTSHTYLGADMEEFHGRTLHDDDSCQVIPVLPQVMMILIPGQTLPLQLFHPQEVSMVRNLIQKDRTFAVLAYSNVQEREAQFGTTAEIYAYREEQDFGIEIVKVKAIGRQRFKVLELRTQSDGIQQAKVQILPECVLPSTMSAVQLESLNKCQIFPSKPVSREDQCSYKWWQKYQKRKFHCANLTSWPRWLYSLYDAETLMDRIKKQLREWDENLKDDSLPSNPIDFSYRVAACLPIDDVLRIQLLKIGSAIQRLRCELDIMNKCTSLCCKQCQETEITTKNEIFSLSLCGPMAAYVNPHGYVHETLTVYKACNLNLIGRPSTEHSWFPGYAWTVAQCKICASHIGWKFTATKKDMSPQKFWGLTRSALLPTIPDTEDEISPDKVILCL
T2 sequence (Q16531 whole entry partner): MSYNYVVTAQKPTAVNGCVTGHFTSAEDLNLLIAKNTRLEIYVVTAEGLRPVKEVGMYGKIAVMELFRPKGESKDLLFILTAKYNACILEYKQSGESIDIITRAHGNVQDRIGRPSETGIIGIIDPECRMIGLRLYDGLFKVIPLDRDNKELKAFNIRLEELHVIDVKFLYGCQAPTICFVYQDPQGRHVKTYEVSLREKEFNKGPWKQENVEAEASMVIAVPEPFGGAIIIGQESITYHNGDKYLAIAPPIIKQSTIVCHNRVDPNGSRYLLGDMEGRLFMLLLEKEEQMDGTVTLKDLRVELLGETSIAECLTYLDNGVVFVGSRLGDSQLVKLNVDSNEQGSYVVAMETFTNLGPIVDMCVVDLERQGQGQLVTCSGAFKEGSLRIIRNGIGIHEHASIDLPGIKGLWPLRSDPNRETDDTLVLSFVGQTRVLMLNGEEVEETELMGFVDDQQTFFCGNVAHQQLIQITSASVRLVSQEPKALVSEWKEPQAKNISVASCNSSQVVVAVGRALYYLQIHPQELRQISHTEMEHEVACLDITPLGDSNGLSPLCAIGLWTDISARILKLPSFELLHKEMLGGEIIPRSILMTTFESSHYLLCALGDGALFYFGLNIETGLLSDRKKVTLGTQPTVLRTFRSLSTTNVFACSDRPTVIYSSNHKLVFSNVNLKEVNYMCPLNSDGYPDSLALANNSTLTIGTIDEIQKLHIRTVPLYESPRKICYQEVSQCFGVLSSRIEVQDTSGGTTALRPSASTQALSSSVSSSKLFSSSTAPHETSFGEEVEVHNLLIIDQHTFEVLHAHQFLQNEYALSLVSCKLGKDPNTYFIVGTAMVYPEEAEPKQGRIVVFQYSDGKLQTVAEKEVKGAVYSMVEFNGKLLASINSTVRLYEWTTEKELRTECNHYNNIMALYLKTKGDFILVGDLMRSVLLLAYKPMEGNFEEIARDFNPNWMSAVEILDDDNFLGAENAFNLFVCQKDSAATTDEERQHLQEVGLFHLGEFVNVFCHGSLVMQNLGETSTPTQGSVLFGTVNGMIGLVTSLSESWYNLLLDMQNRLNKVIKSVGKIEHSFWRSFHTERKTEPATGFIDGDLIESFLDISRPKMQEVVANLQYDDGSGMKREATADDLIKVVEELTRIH

O=c1[nH]c(=O)n([C@H]2C[C@H](O)[C@@H](CO)O2)cc1/C=C/Br [BVdU, bromovinyl-deoxyuridine]
EV-GFP cells as fraction of the cell mixture ([1]; day 3): 29% | EV-GFP cells as fraction of the cell mixture ([1]; day 7): 88%

OCCN(CCO)c1nc(N2CCCCC2)c2nc(N(CCO)CCO)nc(N3CCCCC3)c2n1 [Dipyridamole, dipyridamole]
Hit classification in pilot up-assay screen (GFP Z-statistic) [2]: non-specific hits | Classification by GFP and GFP/Tomato ratio in the same well (DCK-IKZF1-IRES-GFP): assay positive

Nc1cccc2c1C(=O)N(C1CCC(=O)NC1=O)C2=O (stereo not shown) [Pomalidomide, pomalidomide]
Rescue from BVdU in cells expressing enzyme only (DCK+Pom) [3]: rescue did not occur | Hit classification in up assay (GFP Z-statistic) [4]: true-positive hits | Hit classification in pilot up-assay screen (GFP Z-statistic) [2]: true-positive hits | Cellular levels of IKZF3 and IKZF3 fusion proteins [5]: highly sensitive | Rescue of cell viability from BVdU in cells expressing the fusion construct (CK-IKZF+Pom) (dCK-IKZF3 fusion protein [6]): partial rescue and cell growth | Classification by GFP and GFP/Tomato ratio in the same well (DCK-IKZF1-IRES-GFP): true positive | Outgrowth of GFP+ (dCK-IKZF3) cells from 1% initial population (dCK-IKZF3 fusion protein [7]): allowed for outgrowth of GFP+cells

Cc1cn([C@H]2C[C@H](O)[C@@H](CO)O2)c(=O)[nH]c1=O [Thymidine]
Hit classification in up assay (GFP Z-statistic) [4]: assay positive | Hit classification in down assay (Firefly/Renilla ratio Z-statistic) [8]: does not score
